Source: patent publication US20210267973A1, “COMBINATION OF A TYPE II PROTEIN ARGININE […] INHIBITOR AND AN ICOS BINDING PROTEIN TO TREAT CANCER” (GLAXOSMITHKLINE INTELLECTUAL PROPERTY DEVELOPMENT LIMITED, priority 2018, published 2021)

Tests used:
[1] = test system: 19 enzymes on the methyltransferase selectivity panel (Type I and Type II PRMTs and lysine methyltransferases); assay: methyltransferase selectivity panel; assay type: biochemical; conditions: PRMT5 tool compounds
Text: FIG. 6: Phylogenetic tree highlighting the methyltransferases tested in the selectivity panel. […] PRMT9 is shown for relationship purposes only within the family tree and was not evaluated in the panel. Figure adapted from Richon V M. et al.
PRMT9/FBXO11, which is the other Type II PRMT and the only PRMT to lack the THW loop, was not included due to the lack of a functional enzyme assay.

[2] = test system: MDM4 splicing, SDMA, p53 and p21 in MCL lines; assay: MDM4 splicing (RT-PCR) and SDMA/p53/p21 Western in MCL lines; assay type: cell-based; conditions: Z138 cells
Method: To understand whether p53 activation is associated with MDM4 isoform switching, MDM4 alternative splicing was analyzed. […] The role of the p53 pathway in the biology of the response of p53 wild-type MCL cells to PRMT5 inhibition is being evaluated.

[3] = test system: SKBR3, MDA-MB-468, MCF-7, ZR-75-1 and Z-138 cells; assay: longer-term growth/death assay in breast and MCL cell lines; assay type: cell-based; conditions: SKBR3, MDA-MB-468 and MCF-7 cells, 7-10 days
[4] = test system: SDMA, MDM4 splicing, p53 in GBM and lymphoma cell lines; assay: SDMA, MDM4 splicing and p53 in GBM and lymphoma cell lines; assay type: cell-based; conditions: 1 μM
Method: Next, effects on cellular methylation and the p53 pathway were evaluated in GBM cells treated with a PRMT5 inhibitor by measuring SDMA, p53 and p21 protein levels and MDM4 splicing (FIG. 27). […] Alternative MDM4 splicing was detected in all cell lines but SF539 which are p53 mutant and have low basal expression of the long MDM4 isoform (FIG. 27, panel A). p53 levels increased in all cell lines, while the induction of p21 protein was observed only in cell lines that have wild-type p53 (Z138 (MCL), U87-MG and A172 (GBM)). […] The role of p53 in the response of GBM cell lines to PRMT5 inhibition will be further tested in future studies. Additionally, the effects of PRMT5 inhibition on cell cycle and neural differentiation in GBM models are being explored.

[5] = test system: cellular splicing in lymphoma cell lines; assay: RNA-sequencing splicing analysis in lymphoma cell lines; assay type: cell-based
Method: A. Mechanisms of regulation of cellular splicing (adapted from Bezzi M. et al.). B. Analysis of intron expression in lymphoma lines treated with 0.1 or 0.5 μM Compound B.
A. Quantification of isoform switches in 4 lymphoma cell lines treated with Compound B (0.1 and 0.5 μM) for 2 and 4 days. B. Overlap of isoform switches in 4 lymphoma lines. C. List of genes that undergo alternative splicing in all 4 lymphoma lines (overlap of 4 cell lines).
PRMT5 methylates histones and proteins involved in RNA processing and therefore PRMT5 inhibition is expected to have a profound effect on cellular mRNA homeostasis. To further decipher cellular mechanisms that are regulated by PRMT5 and contribute to the cellular response to PRMT5 inhibitors, global gene expression changes were evaluated in lymphoma models sensitive to PRMT5 inhibition. To elucidate gene expression changes that occur in lymphoma cell lines upon PRMT5 inhibitor treatment, 4 sensitive lymphoma lines (2 MCL lines-Z138 and Granta-519 and 2 DLBCL lines-DOHH2 and RL) were profiled by RNA-sequencing.
Since PRMT5 methylates spliceosome subunits and PRMT5 inhibition attenuates arginine methylation of a number of proteins involved in splicing, the effect of PRMT5 inhibin on cellular splicing was studied. The changes in RNA splicing were assessed in the lymphoma RNA-seq dataset described above. […]

[6] = test system: panel of cancer cell lines; assay type: cell-based; conditions: most sensitive lymphoma lines (MCL and DLBCL)
Text: (§1) DLBCL-diffuse large B-cell lymphoma, GBM-glioblastoma, MCL-mantle cell lymphoma, […]
as §1
The cell lines were selected to represent tumor types where PRMT5 activity has been reported to regulate key pathways and/or cell growth and survival (such as lymphoma and MCL, glioma, breast and lung cancer lines).

MCL cell lines = assay: 6-day growth/death assay in a panel of MCL lines; assay type: cell-based; conditions: Mino, Jeko-1
Text: FIG. 18: Activity of PRMT5 inhibitor and ibrutinib as single agents and in combination in MCL cell lines. […] C.
• The strongest mechanistic link currently described between PRMT5 and cancer is in MCL. PRMT5 is frequently overexpressed in MCL and is highly expressed in the nuclear compartment where it increases levels of histone methylation and silences a subset of tumor suppressor genes. Importantly, cyclin D1, the oncogene that is translocated in the vast majority of MCL patients, associates with PRMT5 and through a cdk4-dependent mechanism increases PRMT5 activity. PRMT5 mediates the suppression of key genes that negatively regulate DNA replication allowing for cyclin D1-dependent neoplastic growth. PRMT5 knockdown inhibits cyclin D1-dependent cell transformation causing death of tumor cells.

Z-138 MCL xenograft = assay: 21-day efficacy study in Z-138 MCL xenograft model; assay type: in vivo; conditions: all groups in all efficacy studies presented
Method: B. Quantified SDMA western data from tumors harvested at the end of the efficacy study (3 hours post last dose).

[7] = test system: xenograft models of mantle cell lymphoma; assay: xenograft models of mantle cell lymphoma (summary statement); assay type: in vivo
Text: […] • The strongest mechanistic link currently described between PRMT5 and cancer is in MCL. PRMT5 is frequently overexpressed in MCL and is highly expressed in the nuclear compartment where it increases levels of histone methylation and silences a subset of tumor suppressor genes. […] The vast majority of SDMA containing proteins were factors that are involved in cellular splicing and RNA processing (SmB, Lsm4, hnRNPH1 and others), transcription (FUBP1) and translation highlighting the role of PRMT5 as an important regulator of cellular RNA homeostasis.

MDA-MB-468 xenograft = assay: MDA-MB-468 triple negative breast cancer xenograft model; assay type: in vivo; conditions: 100 mg/kg BID
Method: Next, the efficacy of PRMT5 inhibition was evaluated in in vivo models of breast cancer.

In the case of CC(=O)N1CCC(Nc2cc(C(=O)NC[C@H](O)CN3CCc4ccccc4C3)ccn2)CC1 [Compound F], the “selectivity for PRMT5/MEP50 over the other methyltransferases” value (shortened to “selectivity for PRMT5/MEP50”) [1] is reported as “Selectivity for PRMT5/MEP50 over the other methyltransferases was also observed”.

With COc1ccc(C2=N[C@@H](c3ccc(Cl)cc3)[C@@H](c3ccc(Cl)cc3)N2C(=O)N2CCNC(=O)C2)c(OC(C)C)c1 [Nutlin-3, reference compound] the “p53 and p21 expression” value ([2]; 5 μM) was “increased”.

O=C(NC[C@H](O)CN1CCc2ccccc2C1)c1cc(NC2COC2)ncn1 [Compound E] was tested, and the “selectivity for PRMT5/MEP50” value [1] was “Selectivity for PRMT5/MEP50 over the other methyltransferases was also observed”.

For O=C(NC[C@H](O)CN1CCc2ccccc2C1)c1ccnc(NC2CCC2)c1 [Compound B], the “selectivity for PRMT5/MEP50” value [1] was “Selectivity for PRMT5/MEP50 over the other methyltransferases was also observed”, the “nature of response upon prolonged exposure” value [3] was “cytotoxic response” and the MDM4 splicing [4] was “induces alternative splicing of MDM4”. The SDMA levels [4] was “decreases SDMA levels”, the p53 activation [4] was “activates p53” and the isoform switching ([5]; 0.1 and 0.5 μM, 2 and 4 days, 4 lymphoma cell lines) was “induces isoform switching for a subset of genes”. For the same compound, the intron splicing ([5]; 0.1 or 0.5 μM, lymphoma cell lines) was “attenuates the splicing of a subset of introns”.

For CC(=O)N1CCC(Nc2cc(C(=O)NC[C@H](O)CN3CCc4ccccc4C3)ncn2)CC1 [Compound C], the gIC50 [6] was “single digit”, the “sensitivity in 6-day growth/death assay” value (MCL cell lines) was “only moderately sensitive” and the “p53 and p21 expression” value ([2]; 200 nM) was “increased”. For the same compound, the body weight (Z-138 MCL xenograft) was “no body weight loss”, the “tumor growth inhibition (TGI)” value [7] was about 100% and the “nature of response upon prolonged exposure” value [3] was “cytotoxic response”. The “Maximal tumor growth inhibition (TGI)” value (MDA-MB-468 xenograft) was 83%.
